Like-named read-outs stand apart in the source and are kept apart here. Ends that are not written are not given here.
Tests used:
[1] = tested on: disaggregated rat osteoclasts
Method: (§1) Bone resorption assay: Human cortical bone slices were prepared as previously described (Zaidi et al. Quart J.Exp. Physiol. 73, p. 471 (1988). The slices were then cut into pieces, each measuring about 3mm². Newborn Wistar rats were killed by decapitation and their femora and tibiae removed. The bones were freed of adherent soft tissues and cut across their epiphyses in Medium 199 with foetal calf serum (FCS, 10%, v/v) and antibiotics (Flow Laboratories, UK, Ltd.). Osteoclasts were mechanically disaggregated by curetting the bones of each rat with a scalpel blade into Medium 199 (1 ml) and agitating the suspension with a pipette. Large fragments were allowed to settle for 10 seconds, before the supernatant was dropped onto 30 to 35 bone slices placed in a well of a Sterilin 100 18mm multiwell dish. Following incubation (37°C; 15 minutes), the bone slices were removed, washed gently in Minimal Essential Medium with FCS (10%, v/v) (MEM/FCS) and placed in separate wells (each well contained 5-6 slices and 900 µl MEM/FCS). […] After further incubation (37°C, 10% humidified CO₂, 10 minutes), 100 µl of MEM/FCS containing the test substance was added. Finally, bone slices were incubated overnight (37°C, 10% humidified CO₂, 18 hours) and quantified in terms of cell numbers and bone resorption. After fixation in glutaraldehyde, cells were stained with toluidine blue and examined by transmitted light microscopy. In order to rule out toxic effects, osteoclasts were counted on three slices for every variable and their numbers were then compared on hormone-treated and control bone slices. The slices were bleached by immersion in sodium hypochlorite solution (10% v/v) for 30 minutes and dehydrated in aqueous ethanol (80% v/v). The slices were then sputter coated with gold, randomized and examined in a Cambridge 360 Scanning Electron Microscope (Cambridge Instruments, Cambridgeshire). Osteoclastic excavations, each defined by a continuous border within an area of unresorbed bone were counted. The area of bone surface resorbed was calculated by tracing the outline of the concavities into an image processor (Sight Systems, Newbury, Berks).

[2] = in vivo rat hypocalcaemia assay: plasma calcium after intravenous injection of the peptide; design: species or system male Wistar rats
Method: The effects of amylin and deamidated amylin on calcium metabolism in the rat and rabbit were investigated by two different methods. First, in vivo hypocalcaemic activity was assessed by measuring plasma calcium levels after injection of the peptide in 50 g rats. Next, in vitro resorption of cortical bone by disaggregated rat osteoclasts was quantified by scanning electron microscopy together with image analysis. […] Both are inhibitors of osteoclastic resorption and lower plasma calcium in both rats and rabbits. Described below are experiments which show the biological activity of both amylin and deamidated amylin using the in vivo rat hypocalcaemia assay and an in vitro bone resorption system. In addition, the effect on plasma calcium levels of infusion of high doses of amylin into rabbits is described.
Animal experiments: Fifty gram male Wistar rats (mean weight ± SEM, 51 ± 1.2g, Charles Rivers, Margate, Kent) were fasted overnight with ad lib access to water and used for experiments. […] Following injection the animals were bled into heparinized syringes via the dorsal aorta under light ether anaesthesia. In another set of experiments, rabbits (mean weight ± SEM, 3.2 ± 0.3 kg) were restrained in wooden cages and sedated with Hypnorm (1 ml) (Janssen, Denmark). […] Plasma was separated and calcium levels measured by DC Plasma Emission Spectrophotometry.

[3] = plasma calcium during and after continuous intravenous infusion into rabbits; type: in vivo; conditions: infusion of 500 pmol per minute over 90 minutes
Method: Animal experiments: Fifty gram male Wistar rats (mean weight ± SEM, 51 ± 1.2g, Charles Rivers, Margate, Kent) were fasted overnight with ad lib access to water and used for experiments. […] Following injection the animals were bled into heparinized syringes via the dorsal aorta under light ether anaesthesia. In another set of experiments, rabbits (mean weight ± SEM, 3.2 ± 0.3 kg) were restrained in wooden cages and sedated with Hypnorm (1 ml) (Janssen, Denmark). They were infused with saline or amylin (500 pmol min ⁻¹) for 90 minutes via a 21 G needle inserted into the lateral ear vein. The needle was connected to a pump via a polythene cannula (Portex, 00, Hythe, Kent). Blood samples were taken at timed intervals before and after the infusion was commenced. Plasma was separated and calcium levels measured by DC Plasma Emission Spectrophotometry.

[4] = plasma calcium after intravenous infusion in patients with Paget's disease; type: in vivo
Method: Furthermore, 1 hour of intravenous infusion of 150 pmol/Kg/min amylin into four human patients with Paget's disease reduced plasma calcium by amounts ranging from […].

isolated osteoclasts = assay: second messenger pathways and functional responses of isolated osteoclasts; type: cell-based
Excerpt: Thus, it appears that osteoclast activity may be restrained via two receptor types; calcitonin acts at both while amylin acts mainly via only one, reducing motility, reducing resorption and probably acting via the second messenger cAMP (Zaidi et. al. 1990, J. Endocrinol 126, 473-481).

[5] = tested on: disaggregated rat osteoclasts; assay: bone resorption assay: isolated osteoclasts on human cortical bone slices, scanning electron microscopy with image analysis
Method: as §1

[6] = peptides not all compared in the same assay

| Compound | cell number or viability [1] | effect on plasma calcium ([2]; 50 g rats, intravenous injection of 500 pmol) | responses (hypocalcaemic and anti-resorptive activity) compared with calcitonin and CGRP ([2]; summary covering the in vivo and the in vitro tests, order: asu1-7-eel CT>human CT>amylin/amylin amide>CGRP) | effect on plasma calcium [3] | time calcium levels continued to fall after the end of the infusion [3] | time until a trend to lower plasma calcium was apparent [3] | potency compared with human calcitonin [4] | cell retraction (isolated osteoclasts) | cytosolic calcium (isolated osteoclasts) | osteoclast motility (isolated osteoclasts) | total area of bone resorbed by isolated osteoclasts ([5]; 18 hours incubation, concentration-dependent) | cell number or viability ([5]; osteoclasts counted on hormone-treated and control bone slices) | potency compared with CGRP [5, 6] | potency compared with human calcitonin [5, 6] |
| --- | --- | --- | --- | --- | --- | --- | --- | --- | --- | --- | --- | --- | --- | --- |
| CC[C@H](C)[C@H](NC(=O)[C@H](C)NC(=O)CNC(=O)[C@H](Cc1ccccc1)NC(=O)[C@H](CC(N)=O)NC(=O)[C@H](CC(N)=O)NC(=O)[C@H](CO)NC(=O)[C@H](CO)NC(=O)[C@H](Cc1c[nH]cn1)NC(=O)[C@@H](NC(=O)[C@H](CC(C)C)NC(=O)[C@H](Cc1ccccc1)NC(=O)[C@H](CC(N)=O)NC(=O)[C@H](C)NC(=O)[C@H](CC(C)C)NC(=O)[C@H](CCCNC(=N)N)NC(=O)[C@H](CCC(N)=O)NC(=O)[C@@H](NC(=O)[C@H](C)NC(=O)[C@@H]1CSSC[C@H](NC(=O)[C@@H](N)CCCCN)C(=O)N[C@@H](CC(N)=O)C(=O)N[C@@H]([C@@H](C)O)C(=O)N[C@@H](C)C(=O)N[C@@H]([C@@H](C)O)C(=O)N1)[C@@H](C)O)C(C)C)C(=O)N[C@@H](CC(C)C)C(=O)N[C@@H](CO)C(=O)N[C@@H](CO)C(=O)N[C@H](C(=O)N[C@@H](CC(N)=O)C(=O)N[C@H](C(=O)NCC(=O)N[C@@H](CO)C(=O)N[C@@H](CC(N)=O)C(=O)N[C@H](C(=O)N[C@@H](Cc1ccc(O)cc1)C(=O)O)[C@@H](C)O)C(C)C)[C@@H](C)O [deamidated amylin] | without affecting cell number or viability |  |  |  |  |  |  |  |  |  |  |  |  |  |
| amylin (KCNTATCATQRLANFLVHSSNNFGAILSSTNVGSNTY-NH2; cysteine pairing not given here; UniProt P10997 34-70, looked up) |  | marked hypocalcaemia | less than for calcitonin, but significantly greater than those observed with CGRP | marked lowering of plasma calcium | 30 min | ≤ 30 min | comparably potent to human calcitonin | evoked neither of these responses | evoked neither of these responses | inhibited osteoclast motility | marked reduction | without affecting cell number or viability | more potent than CGRP | less potent than human calcitonin by about an order or magnitude |
| calcitonin [reference compound] |  |  |  |  |  |  |  | caused cell retraction | elevated cytosolic calcium | inhibited osteoclast motility |  |  |  |  |
